Test system: TNFSF3 mRNA
Experiment: TNFSF3 mRNA in whole blood after dietary component and heat-aggregated IgG stimulation
Assay type: cell-based, human
Settings: case 1, FIG. 5; pre-incubation 30 minutes, HAG 2 hours; quercetin 100 nmol/L
Protocol: The mRNA and cDNA were prepared from the whole blood that was exposed to the dietary components, as well as the whole blood which remained unexposed. In brief, home-made 96-well filterplates were placed over collection plates, and 150 μl 5 mM Tris, pH 7.4, was applied. Following centrifugation at 120×g for 1 min at 4° C., 50 μl of blood samples were applied to each well and immediately centrifuged at 120×g for 2 min at 4° C., followed by washing of each well with 300 μl PBS once with centrifugation at 2000×g for 5 min at 4° C. […] The Ct was determined by analytical software (SDS, ABI).
In this embodiment, heparinized whole blood of two individuals was pre-incubated with various dietary supplements at 37° C. for 30 minutes (at the same blood concentrations as in Embodiment 2), then stimulated with 1.2 μL of heat-aggregated IgG. […] The level of TNFSF3 and TNFSF15 mRNA was then assessed using the method described in Embodiment 1, with the exception that SYBR Green PCR was used to quantitate the mRNA. […]

O=c1c(O)c(-c2ccc(O)c(O)c2)oc2cc(O)cc(O)c12 [quercetin]
HAG-induced TNFSF3 expression, in words: HAG induced TNFSF3 expression in blood exposed to quercetin

From patent US20080206761A1, “Ex Vivo Gene Expression in Whole Blood as a Model of Assessment of Individual Variation to Dietary Supplements” (priority 2005, published 2008)
